Test results from patent US6521283B1, “Non-thrombogenic surfaces” (Biocompatibles Limited, priority 1990, dated 2003).

Assays:
[1] = test system: platelets; assay: quantitative platelet adhesion test (ATP luminometry) in fresh citrated whole human blood; type: cell-based
Procedure: A quantitative platelet adhesion test was carried out by immersing samples in fresh citrated whole human blood at room temperature for 30 minutes. Tubing samples were prepared in 3 cm lengths sealed at both ends (the blood being introduced into the sample by hypodermic needle), and constantly mixed using a spiral mixer (tests were carried out in triplicate). Blood used in this assay was obtained using the double syringe method.
After incubation the samples were washed in isotonic phosphate buffered saline (PBS) and extracted into 1% trichloro acetate (TCA) (w/v) in 2 mM ethylene diamine tetraacetic acid (EDTA) to liberate ATP from any platelets adhering to the walls of the tubing.
The amount of ATP present in the extractant was estimated using the LKB Pharmacia ATP assay kit and a luminometer.
The number of platelets adhering to the samples was estimated from a standard curve using ATP levels associated with a known number of platelets.

[2] = test system: recalcified blood; assay: in-use simulation: recalcified blood incubated in catheter segments, clot formation; set-up: species or system human; details: 15 cm catheter segment, frosted region, coated according to Example 2, 37° C., 150 minutes
Procedure: Three 15 cm segments of catheter (frosted region) coated according to Example 2 were prepared with the ends sealed using Eppendorf tubes. 40 ml of blood was collected from an adult volunteer into tri-sodium citrate (32 g/l) using the double syringe technique (the first 5 ml were discarded). 2 ml of 0.025 M calcium chloride in 0.15 M sodium chloride was added to 10 ml of citrated blood. 4 ml of recalcified blood was then added to each of the three catheter segments. The tubes were placed in a 37° C. incubator for 150 minutes. The samples were turned every 30 minutes. After this incubation the blood was drained from each of the catheters. They were then rinsed using PBS to remove any loosely bound material.

[3] = PE (polyethylene) treated at 10 mg/ml
[4] = PVC thoracic drain catheter, clear region, coated at 10 mg/ml (Example 2)
[5] = PVC thoracic drain catheter, frosted region, coated at 10 mg/ml (Example 2)
[6] = polystyrene petri dish spin-coated at 10 mg/ml (Example 4)

## CCCCCCCCCCCCCC(=O)OC[C@H](COP(=O)([O-])OCC[N+](C)(C)C)OC(=O)CCCCCCCCCCCCC [DMPC, dimyristoyl phosphatidyl choline]
[1]; [3]
  % Reduction (platelet adhesion vs uncoated PE): 94%
  platelets adhered, DONOR 1: 0.91 no. of platelets ×10^6 per 22 mm^2 area of material
  platelets adhered, DONOR 2: 1.38 no. of platelets ×10^6 per 22 mm^2 area of material
  platelets adhered, DONOR 3: 3.99 no. of platelets ×10^6 per 22 mm^2 area of material
  platelets adhered, X̄ (mean of donors): 2.09 no. of platelets ×10^6 per 22 mm^2 area of material
[1]; [4]
  % Reduction (platelet adhesion vs uncoated): 56.1%
  platelets adhered, DONOR 1: 15.26 platelets adhered ×10^6 per 3 cm lengths of catheters
  platelets adhered, DONOR 2: 8.09 platelets adhered ×10^6 per 3 cm lengths of catheters
  platelets adhered, DONOR 3: 16.78 platelets adhered ×10^6 per 3 cm lengths of catheters
  platelets adhered, X̄ (mean of donors): 13.38 platelets adhered ×10^6 per 3 cm lengths of catheters
[1]; [5]
  % Reduction (platelet adhesion vs uncoated): 95%
  platelets adhered, DONOR 1: 0.31 platelets adhered ×10^6 per 3 cm lengths of catheters
  platelets adhered, DONOR 2: 0.11 platelets adhered ×10^6 per 3 cm lengths of catheters
  platelets adhered, DONOR 3: 0.56 platelets adhered ×10^6 per 3 cm lengths of catheters
  platelets adhered, X̄ (mean of donors): 0.33 platelets adhered ×10^6 per 3 cm lengths of catheters
[1]; [6]
  % Reduction (platelet adhesion vs uncoated): 97%
  platelets adhered, DONOR 1: 1.20 no. of platelets ×10^6 adhered per petri dish (50 mm diameter)
  platelets adhered, DONOR 2: 0.26 no. of platelets ×10^6 adhered per petri dish (50 mm diameter)
  platelets adhered, DONOR 3: 3.78 no. of platelets ×10^6 adhered per petri dish (50 mm diameter)
  platelets adhered, X̄ (mean of donors): 1.75 no. of platelets ×10^6 adhered per petri dish (50 mm diameter)
[2]
  drainage of blood and clot remaining in catheter: Whole blood drained easily. One small clot remained attached to the surface
